Drawing on PMC12687421, “Characterisation of an allosteric site in PLCγ enzymes and implications for development of their specific inhibitors” (Biochemical Journal, 2025), this text covers Kd for 2 molecules.

This assay deals with T1, PLCγ1^K491D (Homo sapiens, UniProt P19174, I813T/K491D).
T1 construct: made in house; host or cells: Escherichia coli T7 Express lysY/Iq
T1 sequence (P19174 1-1291 isoform P19174-2 K491D/I813T): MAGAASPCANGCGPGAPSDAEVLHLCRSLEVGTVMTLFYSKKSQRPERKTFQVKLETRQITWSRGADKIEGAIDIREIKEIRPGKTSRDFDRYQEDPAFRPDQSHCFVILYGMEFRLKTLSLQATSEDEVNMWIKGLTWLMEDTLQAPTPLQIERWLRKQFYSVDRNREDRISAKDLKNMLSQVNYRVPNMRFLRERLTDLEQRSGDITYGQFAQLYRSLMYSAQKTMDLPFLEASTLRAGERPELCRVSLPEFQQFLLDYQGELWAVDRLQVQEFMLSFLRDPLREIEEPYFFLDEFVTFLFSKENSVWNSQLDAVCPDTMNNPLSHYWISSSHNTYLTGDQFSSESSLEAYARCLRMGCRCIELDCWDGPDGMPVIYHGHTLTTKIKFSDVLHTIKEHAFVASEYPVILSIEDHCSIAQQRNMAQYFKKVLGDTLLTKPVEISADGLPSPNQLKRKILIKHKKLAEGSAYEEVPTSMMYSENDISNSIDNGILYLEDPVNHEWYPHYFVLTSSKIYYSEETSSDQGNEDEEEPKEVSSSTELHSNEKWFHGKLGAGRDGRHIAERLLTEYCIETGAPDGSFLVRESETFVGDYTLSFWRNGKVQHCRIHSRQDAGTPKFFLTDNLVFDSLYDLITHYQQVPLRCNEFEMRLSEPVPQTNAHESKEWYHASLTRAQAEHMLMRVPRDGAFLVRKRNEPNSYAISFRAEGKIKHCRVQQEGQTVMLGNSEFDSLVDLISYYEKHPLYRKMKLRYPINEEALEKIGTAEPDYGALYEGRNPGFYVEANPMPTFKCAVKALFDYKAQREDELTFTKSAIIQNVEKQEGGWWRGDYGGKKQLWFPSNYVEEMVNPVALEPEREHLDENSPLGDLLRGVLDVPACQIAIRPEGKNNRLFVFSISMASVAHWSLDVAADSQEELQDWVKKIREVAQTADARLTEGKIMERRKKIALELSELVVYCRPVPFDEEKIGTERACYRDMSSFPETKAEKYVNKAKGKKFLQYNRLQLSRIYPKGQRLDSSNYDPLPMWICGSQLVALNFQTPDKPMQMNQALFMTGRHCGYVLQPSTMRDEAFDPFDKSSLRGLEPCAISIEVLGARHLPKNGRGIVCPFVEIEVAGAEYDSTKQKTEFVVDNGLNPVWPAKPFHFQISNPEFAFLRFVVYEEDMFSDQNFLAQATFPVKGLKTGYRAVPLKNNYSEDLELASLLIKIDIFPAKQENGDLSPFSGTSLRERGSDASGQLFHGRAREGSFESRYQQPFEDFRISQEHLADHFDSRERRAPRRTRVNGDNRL
The experiment in a line: Microscale thermophoresis (MST) binding, K491D variant. As to conditions: read-out: estimated Kd, MST, PLCγ1^K491D. As to the method: Proteins were diluted to 200 nM in MST buffer [50 mM Hepes.KOH, 70 mM KCl, 5% (v/v) glycerol, 0.05% (v/v) Tween-20, 2 mM DTT (pH 7.5)] and subsequently labelled by adding an equal volume of 100 nM 2nd generation RED-Tris-NTA labelling dye and incubating for 30 minutes. […] An equal volume of labelled protein was added to each ligand concentration and the mixture taken up into a standard MST capillary. Samples were measured in a Monolith NT.115 pico instrument (Nanotemper) using the Nano-RED channel. Excitation power was set to 5% and MST power set to high. All experiments were performed at 25°C. All data were analysed using the manufacturer’s MO.Control software and repeated at least three times with representative experiments shown.

With `Nc1ncnc2c1ncn2[C@@H]1O[C@H](COP(=O)(O)OP(=O)(O)OP(=O)(O)O)[C@@H](O)[C@H]1O` [ATP], the equilibrium dissociation constant (Kd) is approximately 700 µM. For `Nc1ncnc2c1ncn2[C@@H]1O[C@H](COP(=O)(O)OP(=O)(O)O)[C@@H](O)[C@H]1O` [ADP] the value was 1000 to 2000 µM.
